Tests used:
Assay in all cases: Midazolam potentiation of EC10 GABA currents, whole-cell patch clamp, HEK293T
Format in all cases: cell-based
[1] = target: T1, α5(H105R)β2γ2 GABAA receptor (Homo sapiens, UniProt P18507+P31644+P47870, H136R)
T1 construct: expressed in transfected cells; host or cells: HEK293T
Excerpt: (§1) Human (Homo sapiens) GABAA subunits (α1‐6, β2, γ2s) were subcloned into pcDNA3.1+ vectors with a cytomegalovirus (CMV) promoter. The hβ2 and hα3 sequences were humanized rat (Rattus norvegicus) cDNA with amino acid substitutions made to match the human protein sequence. The α1‐3, α5, β2, and γ2s subunits were a generous gift from Neil L. Harrison (Columbia University Medical Center, NY). The α4 subunit was obtained from GenScript (Piscataway, NJ), and the α6 subunit was a generous gift from Robert L. McDonald (Vanderbilt University, TN). All point mutations (listed in Figure 1C) were introduced using the QuikChange Lightening site‐directed mutagenesis kit (Agilent Technologies, Santa Clara, CA) according to the manufacturer's instructions and were confirmed by sequencing (Eurofins MWG Operon, Louisville, KY).
(§2) Human embryonic kidney cells containing the SV40 T‐antigen (HEK293T) were acquired from American Type Culture Collection (ATCC®, Manassas, VA), catalogue number, CRL3216. HEK293T cells were maintained at 37°C and 5% CO2 in Eagle Minimum Essential Medium (MEM) supplemented with 5% fetal bovine serum (Atlanta Biologicals Inc., Flowery Branch, GA), 40 μM L‐glutamine, 100 U/mL penicillin and 0.1 mM streptomycin. Cells were passaged regularly when they reached 70% confluency using trypsin. Cells were not passaged more than 22 times. New cells were revived from frozen stocks at passage 2‐4. Cells used for in vitro electrophysiology experiments were grown on poly‐D‐lysine‐coated glass coverslips (No.2, VWR, Radnor, PA) and transfected with X‐tremeGENE (Roche Diagnostics, Indianapolis, IN) with the desired receptor subunit cDNAs at a 1:1:1 ratio to express αxβ2γ2s receptors (2 μg total cDNA) and with 0.5 μg green fluorescent protein (GFP) as an expression marker. The γ2s incorporation into receptors was tested with zinc inhibition assays regularly.24 Patch clamp experiments were performed on cells at 24‐72 hours post‐transfection. All experiments were performed at 22°C. Experiments consisted of at least five cells recorded per day from at least two transfections across 3‐4 days to control for cell health and transfection efficiency. At least three cells expressing wild‐type receptors were recorded on days that mutant receptors were tested to provide a time‐matched expression control. All reagents were purchased from Sigma‐Aldrich (St. Louis, MO) unless otherwise stated.
(§3) Extracellular solution contained 161 mM NaCl, 3 mM KCl, 1 mM MgCl2, 1.5 mM CaCl2, 10 mM HEPES, and 6 mM D‐glucose, adjusted to pH 7.4 with NaOH (320‐330 mOsm). […] The perfusion system was controlled by protocols written in pClamp 9 (Molecular Devices, LLC., Sunnyvale, CA). Whole‐cell currents were recorded at ‐60 mV, filtered at 100 Hz and sampled at 200 Hz with a MultiClamp 700B amplifier (Molecular Devices, LLC) and DigiData 1322A (Molecular Devices, LLC) digitizer. […] Cells were recorded with the midazolam protocol no more than two times to avoid desensitization and incomplete washout or irreversible modulation.
(§4) Recordings were analyzed using MATLAB (Math Works, Inc., Natick, MA). […] The maximum peak current, EC50 and Hill coefficient were estimated for assays from each cell. When Hill parameters are estimated from whole‐cell recordings, the changes in the parameters across receptor conditions can be ascribed to the following changes in receptor physiology. Changes in maximum current can be due to changes in the single‐channel conductance or the rate of desensitization. Changes in cell surface receptor expression can cause minor changes in maximum current, but are unlikely to occur in the time course of our experimental protocol. […] More often minor changes in the Hill coefficient are attributed to the altered homogeneity in the receptor population expressed by the HEK293T cell. For example, a shallower Hill coefficient could be caused by a shift in the population of receptors from mostly αβγ receptors to a combination of both αβ and αβγ receptors.

[2] = target: T2, α3(H126R)β2γ2 GABAA receptor (Homo sapiens, UniProt P18507+P34903+P47870, H154R)
T2 construct: expressed in transfected cells; host or cells: HEK293T
T2 sequence (P34903 29-492 H154R): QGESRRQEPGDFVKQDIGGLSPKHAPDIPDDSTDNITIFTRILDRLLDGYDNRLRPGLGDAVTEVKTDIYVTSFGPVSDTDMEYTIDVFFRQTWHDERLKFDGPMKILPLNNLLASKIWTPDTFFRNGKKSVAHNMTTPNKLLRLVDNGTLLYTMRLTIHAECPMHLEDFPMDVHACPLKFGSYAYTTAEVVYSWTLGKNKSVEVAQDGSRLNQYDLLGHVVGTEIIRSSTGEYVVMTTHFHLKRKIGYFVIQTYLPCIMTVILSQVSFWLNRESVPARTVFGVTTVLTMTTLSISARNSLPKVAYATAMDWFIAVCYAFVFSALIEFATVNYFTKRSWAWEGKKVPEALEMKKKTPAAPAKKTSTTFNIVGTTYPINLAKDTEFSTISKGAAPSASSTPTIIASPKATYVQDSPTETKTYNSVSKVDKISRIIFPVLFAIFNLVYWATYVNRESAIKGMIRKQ
T2 sequence (P47870 25-512 limits assumed): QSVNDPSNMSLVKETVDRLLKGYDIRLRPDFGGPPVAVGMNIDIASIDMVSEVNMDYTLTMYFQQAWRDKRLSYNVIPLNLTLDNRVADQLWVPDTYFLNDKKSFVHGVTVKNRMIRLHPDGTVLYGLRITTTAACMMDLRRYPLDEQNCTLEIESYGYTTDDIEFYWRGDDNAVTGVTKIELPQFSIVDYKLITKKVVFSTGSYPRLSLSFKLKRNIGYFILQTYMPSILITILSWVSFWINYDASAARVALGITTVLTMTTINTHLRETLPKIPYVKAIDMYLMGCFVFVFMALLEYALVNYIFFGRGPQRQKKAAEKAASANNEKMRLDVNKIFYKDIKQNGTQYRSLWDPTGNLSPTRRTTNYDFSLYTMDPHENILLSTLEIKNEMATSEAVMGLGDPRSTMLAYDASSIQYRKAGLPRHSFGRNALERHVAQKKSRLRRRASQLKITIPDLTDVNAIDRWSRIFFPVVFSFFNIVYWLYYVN
T2 sequence (P18507 40-467 isoform P18507-1 limits assumed, stated change not applied): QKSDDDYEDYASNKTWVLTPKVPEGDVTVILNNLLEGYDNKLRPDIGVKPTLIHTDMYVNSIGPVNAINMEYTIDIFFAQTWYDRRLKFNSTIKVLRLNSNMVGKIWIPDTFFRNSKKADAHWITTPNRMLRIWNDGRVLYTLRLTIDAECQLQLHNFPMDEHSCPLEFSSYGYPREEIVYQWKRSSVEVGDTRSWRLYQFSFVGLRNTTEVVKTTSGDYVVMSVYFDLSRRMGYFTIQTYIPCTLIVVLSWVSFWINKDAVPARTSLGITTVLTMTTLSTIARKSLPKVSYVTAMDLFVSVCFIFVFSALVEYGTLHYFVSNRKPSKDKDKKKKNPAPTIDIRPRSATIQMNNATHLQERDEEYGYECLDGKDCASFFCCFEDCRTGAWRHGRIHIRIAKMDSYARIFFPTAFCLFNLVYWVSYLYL
Excerpt: as §1, §2, §3, §4

α3β2γ2 GABAA receptor = target: T3, α3β2γ2 GABAA receptor (Homo sapiens, UniProt P18507+P34903+P47870)
T3 construct: expressed in transfected cells; host or cells: HEK293T
T3 sequence (P34903 29-492): as the sequence (P34903 29-492 H154R) above, with R126H counted along it
T3 sequence (P47870 25-512 limits assumed): as the sequence (P47870 25-512 limits assumed) above
T3 sequence (P18507 40-467 isoform P18507-1 limits assumed): as the sequence (P18507 40-467 isoform P18507-1 limits assumed, stated change not applied) above
Excerpt: as §1, §2, §3, §4

[3] = target: T4, α1(H102R)β2γ2 GABAA receptor (Homo sapiens, UniProt P14867+P18507+P47870, H129R)
T4 construct: expressed in transfected cells; host or cells: HEK293T
T4 sequence (P14867 28-456 H129R): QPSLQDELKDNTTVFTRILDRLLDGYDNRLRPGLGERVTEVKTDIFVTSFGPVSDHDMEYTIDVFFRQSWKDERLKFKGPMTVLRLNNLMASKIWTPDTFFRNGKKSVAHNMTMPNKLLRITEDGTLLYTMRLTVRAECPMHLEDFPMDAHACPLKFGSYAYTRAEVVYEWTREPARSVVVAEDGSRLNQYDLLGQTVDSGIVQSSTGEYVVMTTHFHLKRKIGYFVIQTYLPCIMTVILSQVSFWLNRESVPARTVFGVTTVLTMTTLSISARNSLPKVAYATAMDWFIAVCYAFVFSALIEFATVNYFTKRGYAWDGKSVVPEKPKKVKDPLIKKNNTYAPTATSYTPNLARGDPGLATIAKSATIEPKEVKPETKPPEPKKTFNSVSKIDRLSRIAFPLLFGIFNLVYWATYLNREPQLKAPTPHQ
T4 sequence (P47870 25-512 limits assumed): as the sequence (P47870 25-512 limits assumed) above
T4 sequence (P18507 40-467 isoform P18507-1 limits assumed, stated change not applied): as the sequence (P18507 40-467 isoform P18507-1 limits assumed, stated change not applied) above
Excerpt: as §1, §2, §3, §4

α1β2γ2 GABAA receptor = target: T5, α1β2γ2 GABAA receptor (Homo sapiens, UniProt P14867+P18507+P47870)
T5 construct: expressed in transfected cells; host or cells: HEK293T
T5 sequence (P14867 28-456): as the sequence (P14867 28-456 H129R) above, with R102H counted along it
T5 sequence (P47870 26-474 isoform P47870-1 limits assumed): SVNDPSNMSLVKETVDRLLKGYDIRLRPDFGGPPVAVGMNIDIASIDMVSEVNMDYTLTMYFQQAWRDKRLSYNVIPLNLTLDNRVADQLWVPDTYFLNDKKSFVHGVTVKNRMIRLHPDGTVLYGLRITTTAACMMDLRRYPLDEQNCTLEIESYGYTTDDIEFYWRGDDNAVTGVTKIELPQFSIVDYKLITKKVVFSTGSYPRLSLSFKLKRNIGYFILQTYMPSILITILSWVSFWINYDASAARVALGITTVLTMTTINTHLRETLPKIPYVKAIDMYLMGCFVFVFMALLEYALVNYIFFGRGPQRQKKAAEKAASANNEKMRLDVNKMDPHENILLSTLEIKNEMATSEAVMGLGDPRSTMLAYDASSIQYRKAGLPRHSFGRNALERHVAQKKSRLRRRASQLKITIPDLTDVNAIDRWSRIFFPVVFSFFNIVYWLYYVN
T5 sequence (P18507 40-467 isoform P18507-1 limits assumed): as the sequence (P18507 40-467 isoform P18507-1 limits assumed, stated change not applied) above
Excerpt: as §1, §2, §3, §4

[4] = target: T6, α4(P161T)β2γ2 GABAA receptor (Homo sapiens, UniProt P18507+P47870+P48169, P196T); conditions: for Midazolam potentiation (%): α4(P161T)
T6 construct: expressed in transfected cells; host or cells: HEK293T
T6 sequence (P48169 36-554 P196T): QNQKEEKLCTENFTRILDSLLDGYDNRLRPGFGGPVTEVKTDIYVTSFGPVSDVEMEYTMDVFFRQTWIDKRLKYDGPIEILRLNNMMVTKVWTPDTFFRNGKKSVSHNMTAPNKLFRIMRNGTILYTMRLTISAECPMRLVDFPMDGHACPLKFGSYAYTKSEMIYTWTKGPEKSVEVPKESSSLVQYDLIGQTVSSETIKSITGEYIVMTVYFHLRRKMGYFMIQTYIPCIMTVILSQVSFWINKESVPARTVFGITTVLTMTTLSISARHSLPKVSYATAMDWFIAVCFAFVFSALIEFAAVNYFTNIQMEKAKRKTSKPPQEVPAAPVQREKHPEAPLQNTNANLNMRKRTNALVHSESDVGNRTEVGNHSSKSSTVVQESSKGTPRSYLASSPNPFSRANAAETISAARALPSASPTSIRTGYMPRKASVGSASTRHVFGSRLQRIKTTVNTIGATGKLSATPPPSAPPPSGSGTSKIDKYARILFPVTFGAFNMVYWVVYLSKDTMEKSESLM
T6 sequence (P47870 26-474 isoform P47870-1 limits assumed, stated change not applied): as the sequence (P47870 26-474 isoform P47870-1 limits assumed) above
T6 sequence (P18507 40-467 isoform P18507-1 limits assumed, stated change not applied): as the sequence (P18507 40-467 isoform P18507-1 limits assumed, stated change not applied) above
Excerpt: as §1, §2, §3, §4

α5β2γ2 GABAA receptor = target: T7, α5β2γ2 GABAA receptor (Homo sapiens, UniProt P18507+P31644+P47870)
T7 construct: expressed in transfected cells; host or cells: HEK293T
T7 sequence (P31644 32-462): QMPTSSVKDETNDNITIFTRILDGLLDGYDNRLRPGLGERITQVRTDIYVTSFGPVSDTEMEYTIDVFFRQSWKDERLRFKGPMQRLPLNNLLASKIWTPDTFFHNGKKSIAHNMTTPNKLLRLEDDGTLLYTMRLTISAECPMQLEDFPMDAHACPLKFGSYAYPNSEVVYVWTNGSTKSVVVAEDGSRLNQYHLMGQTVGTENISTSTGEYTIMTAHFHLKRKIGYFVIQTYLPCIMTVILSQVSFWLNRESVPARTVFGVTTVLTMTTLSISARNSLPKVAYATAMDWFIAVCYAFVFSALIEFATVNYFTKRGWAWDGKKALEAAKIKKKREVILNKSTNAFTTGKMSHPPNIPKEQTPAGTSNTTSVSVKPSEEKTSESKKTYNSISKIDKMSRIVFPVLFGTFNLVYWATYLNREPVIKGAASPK
T7 sequence (P47870 26-474 isoform P47870-1 limits assumed): as the sequence (P47870 26-474 isoform P47870-1 limits assumed) above
T7 sequence (P18507 40-467 isoform P18507-1 limits assumed): as the sequence (P18507 40-467 isoform P18507-1 limits assumed, stated change not applied) above
Excerpt: as §1, §2, §3, §4

T1 sequence (P31644 32-462 H136R): as the sequence (P31644 32-462) above, with H105R counted along it
T1 sequence (P47870 26-474 isoform P47870-1 limits assumed, stated change not applied): as the sequence (P47870 26-474 isoform P47870-1 limits assumed) above
T1 sequence (P18507 40-467 isoform P18507-1 limits assumed, stated change not applied): as the sequence (P18507 40-467 isoform P18507-1 limits assumed, stated change not applied) above

## Cc1ncc2n1-c1ccc(Cl)cc1C(c1ccccc1F)=NC2 [midazolam]
[1]
  responsiveness to midazolam potentiation: abolished the ability of receptors to respond to midazolam potentiation
[1]; 10 nM MDZ + EC10 GABA
  Midazolam potentiation (%): 8.59 ± 4.39%
[1]; 50 nM MDZ + EC10 GABA
  Midazolam potentiation (%): 7.73 ± 4.67%
[1]; 100 nM MDZ + EC10 GABA
  Midazolam potentiation (%): 8.00 ± 4.85%
[1]; 500 nM MDZ + EC10 GABA
  Midazolam potentiation (%): 5.65 ± 3.99%
[1]; 1000 nM MDZ + EC10 GABA
  Midazolam potentiation (%): 8.17 ± 4.66%
[2]
  responsiveness to midazolam potentiation: abolished the ability of receptors to respond to midazolam potentiation
[2]; 10 nM MDZ + EC10 GABA
  Midazolam potentiation (%): 3.71 ± 1.31%
[2]; 50 nM MDZ + EC10 GABA
  Midazolam potentiation (%): 3.63 ± 2.06%
[2]; 100 nM MDZ + EC10 GABA
  Midazolam potentiation (%): 8.25 ± 1.64%
[2]; 500 nM MDZ + EC10 GABA
  Midazolam potentiation (%): 7.92 ± 2.84%
[2]; 1000 nM MDZ + EC10 GABA
  Midazolam potentiation (%): 10.78 ± 2.42%
α3β2γ2 GABAA receptor; 10 nM MDZ + EC10 GABA
  Midazolam potentiation (%): 37.98 ± 5.40%
α3β2γ2 GABAA receptor; 50 nM MDZ + EC10 GABA
  Midazolam potentiation (%): 132.92 ± 12.09%
α3β2γ2 GABAA receptor; 100 nM MDZ + EC10 GABA
  Midazolam potentiation (%): 221.10 ± 19.12%
α3β2γ2 GABAA receptor; 500 nM MDZ + EC10 GABA
  Midazolam potentiation (%): 279.18 ± 24.71%
α3β2γ2 GABAA receptor; 1000 nM MDZ + EC10 GABA
  Midazolam potentiation (%): 281.17 ± 24.73%
α3β2γ2 GABAA receptor; EC50 (nM), midazolam potentiation of EC10 GABA
  EC50: 46.4 nM
α3β2γ2 GABAA receptor; Hill fit, midazolam 10-1000 nM + EC10 GABA
  Max potentiation (%): 267.8 ± 20.3%
α3β2γ2 GABAA receptor; midazolam Hill fit
  Hill coefficient: 1.503 ± 0.117
[3]
  responsiveness to midazolam potentiation: abolished the ability of receptors to respond to midazolam potentiation
[3]; 10 nM MDZ + EC10 GABA
  Midazolam potentiation (%): 8.10 ± 3.48%
[3]; 50 nM MDZ + EC10 GABA
  Midazolam potentiation (%): 13.07 ± 4.69%
[3]; 100 nM MDZ + EC10 GABA
  Midazolam potentiation (%): 16.99 ± 4.42%
[3]; 500 nM MDZ + EC10 GABA
  Midazolam potentiation (%): 26.78 ± 5.31%
[3]; 1000 nM MDZ + EC10 GABA
  Midazolam potentiation (%): 28.87 ± 6.18%
α1β2γ2 GABAA receptor
  EC50: 71.4 ± 5.8 nM
α1β2γ2 GABAA receptor; 10 nM MDZ + EC10 GABA, α1β2γ2
  Midazolam potentiation (%): 22.06 ± 3.46%
α1β2γ2 GABAA receptor; 50 nM MDZ + EC10 GABA, α1β2γ2
  Midazolam potentiation (%): 71.67 ± 6.40%
α1β2γ2 GABAA receptor; 100 nM MDZ + EC10 GABA, α1β2γ2
  Midazolam potentiation (%): 145.94 ± 13.37%
α1β2γ2 GABAA receptor; 500 nM MDZ + EC10 GABA, α1β2γ2
  Midazolam potentiation (%): 201.94 ± 16.80%
α1β2γ2 GABAA receptor; 1000 nM MDZ + EC10 GABA, α1β2γ2
  Midazolam potentiation (%): 215.35 ± 26.71%
α1β2γ2 GABAA receptor; α1β2γ2, Hill fit, midazolam 10-1000 nM + EC10 GABA
  Max potentiation (%): 203.0 ± 17.6%
α1β2γ2 GABAA receptor; α1β2γ2, midazolam Hill fit
  Hill coefficient: 1.765 ± 0.165
[4]; 10 nM MDZ + EC10 GABA
  Midazolam potentiation (%): 13.22 ± 3.76%
[4]; 50 nM MDZ + EC10 GABA
  Midazolam potentiation (%): 10.31 ± 5.64%
[4]; 100 nM MDZ + EC10 GABA
  Midazolam potentiation (%): 14.28 ± 5.87%
[4]; 500 nM MDZ + EC10 GABA
  Midazolam potentiation (%): 21.94 ± 5.61%
[4]; 1000 nM MDZ + EC10 GABA
  Midazolam potentiation (%): 26.43 ± 9.72%
[4]; α4(P161T)β2γ2
  responsiveness to midazolam potentiation: failed to confer midazolam responsiveness
α5β2γ2 GABAA receptor
  EC50: 52.8 ± 3.48 nM
α5β2γ2 GABAA receptor; 10 nM MDZ + EC10 GABA, α5β2γ2
  Midazolam potentiation (%): 20.47 ± 10.62%
α5β2γ2 GABAA receptor; 50 nM MDZ + EC10 GABA, α5β2γ2
  Midazolam potentiation (%): 63.82 ± 19.54%
α5β2γ2 GABAA receptor; 100 nM MDZ + EC10 GABA, α5β2γ2
  Midazolam potentiation (%): 113.29 ± 28.44%
α5β2γ2 GABAA receptor; 500 nM MDZ + EC10 GABA, α5β2γ2
  Midazolam potentiation (%): 130.90 ± 29.52%
α5β2γ2 GABAA receptor; 1000 nM MDZ + EC10 GABA, α5β2γ2
  Midazolam potentiation (%): 123.12 ± 26.08%
α5β2γ2 GABAA receptor; α5β2γ2, Hill fit, midazolam 10-1000 nM + EC10 GABA
  Max potentiation (%): 107.9 ± 20.3%
α5β2γ2 GABAA receptor; α5β2γ2, midazolam Hill fit
  Hill coefficient: 2.632 ± 0.329

Reference: PMC6234229, “The role of loops B and C in determining the potentiation of GABAA receptors by midazolam” (Pharmacology Research & Perspectives, 2018)
